Active and inactive are the calls of the source. The rule behind the calls is not given here.
Legend:
[1] = target: T1, Protein cereblon/Cyclin-G-associated kinase (Mus musculus) (UniProt Q8C7D2+Q99KY4); assay: Induction of GAK degradation in MEF cells at 1 uM measured after 48 hrs by Western blot analysis; assay type: cell-based
[2] = target: Leucine-rich repeat serine/threonine-protein kinase 2 (Mus musculus) (UniProt Q5S006); assay: Induction of LRRK2 degradation in MEF cells by Western blot analysis; assay type: cell-based
[3] = target: T2, Leucine-rich repeat serine/threonine-protein kinase 2 (Homo sapiens, UniProt Q5S007); assay: Inhibition of recombinant human GST-tagged LRRK2 (970 to 2527 residues) expressed in insect cells using LRRKtide as substrate measured after 1 hr by Adapta TR-FRET assay; design: species or system Insect cell
[4] = target: T3, Protein cereblon/Leucine-rich repeat serine/threonine-protein kinase 2 (Mus musculus) (UniProt Q5S006+Q8C7D2); assay: Protac activity at CRBN/LRRK2 in MEF cells assessed as induction of LRRK2 degradation at 1000 nM incubated for 48 hrs by Western blot analysis; assay type: cell-based
[5] = target: Leucine-rich repeat serine/threonine-protein kinase 2 (Homo sapiens, UniProt Q5S007, G2019S); assay: Inhibition of recombinant human GST-tagged LRRK2 G2019S mutant (970 to 2527 residues) expressed in insect cells using LRRKtide as substrate measured after 1 hr by Adapta TR-FRET assay; design: species or system Insect cell
[6] = target: T3, Protein cereblon/Leucine-rich repeat serine/threonine-protein kinase 2 (Mus musculus); assay: Protac activity at CRBN/LRRK2 in MEF cells assessed as induction of LRRK2 degradation at 10 to 1000 nM incubated for 1 to 48 hrs by Western blot analysis; assay type: cell-based; conditions: dose 10-1000 nM, time 1-48 hrs
[7] = target: Protein cereblon/Cyclin-G-associated kinase (Homo sapiens) (UniProt O14976+Q96SW2); assay: Protac activity at CRBN/GAK in human MOLT-4 cells assessed as induction of GAK degradation at 1 uM by proteomic analysis; assay type: cell-based
[8] = target: T1, Protein cereblon/Cyclin-G-associated kinase (Mus musculus); assay: Protac activity at CRBN/GAK in LRRK2 knockout MEF cells assessed as induction of GAK degradation at 1 uM measured after 48 hrs by Western blot analysis; assay type: cell-based
[9] = target: Cereblon/Ikaros (Homo sapiens) (UniProt Q96SW2+Q13422); assay: Protac activity at CRBN/IKZF1 in human MOLT-4 cells assessed as induction of IKZF1 degradation at 1 uM by proteomic analysis; assay type: cell-based
[10] = target: Leucine-rich repeat serine/threonine-protein kinase 2 (Mus musculus) (UniProt Q5S006); assay: Inhibition of LRRK2 in MEF cells assessed as reduction in Rab10 phosphorylation at 10 to 1000 nM measured after 24 to 48 hrs by Western blot analysis; assay type: cell-based; conditions: dose 10-1000 nM, time 24-48 hrs
[11] = tested on: Leucine-rich repeat serine/threonine-protein kinase 2 (Homo sapiens), Q5S007 [G2019S]; assay: Inhibition of human partial length LRRK2 G2019S mutant (H970 to E2527 residues) expressed in mammalian expression system at 1 uM by Kinomescan assay relative to control
[12] = target: T2, Leucine-rich repeat serine/threonine-protein kinase 2; assay: Inhibition of human wild-type partial length LRRK2 (H970 to E2527 residues) expressed in mammalian expression system at 1 uM by Kinomescan assay relative to control
[13] = target: T3, Protein cereblon/Leucine-rich repeat serine/threonine-protein kinase 2 (Mus musculus); assay: Protac activity at CRBN/LRRK2 in MEF cells assessed as induction of LRRK2 degradation at 1 uM incubated for 48 hrs by Western blot analysis; assay type: cell-based
[14] = tested on: Protein cereblon/Leucine-rich repeat serine/threonine-protein kinase 2 (Mus musculus), Q5S006+Q8C7D2 [R1441C]; assay: Protac activity at CRBN/LRRK2 R1441C mutant in MEF cells assessed as induction of LRRK2 degradation at 1 uM incubated for 48 hrs in presence of MLi-2 by Western blot analysis; assay type: cell-based
[15] = target: T3, Protein cereblon/Leucine-rich repeat serine/threonine-protein kinase 2 (Mus musculus); assay: Protac activity at CRBN/LRRK2 in MEF cells assessed as induction of LRRK2 degradation at 1 uM incubated for 48 hrs in presence of cereblon degrader ZXH-03-153 by Western blot analysis; assay type: cell-based
[16] = target: Leucine-rich repeat serine/threonine-protein kinase 2 (Mus musculus) (UniProt Q5S006); assay: Inhibition of LRRK2 in MEF cells assessed as reduction in pS935 phosphorylation at 10 to 1000 nM measured after 24 to 48 hrs by Western blot analysis; assay type: cell-based; conditions: dose 10-1000 nM, time 24-48 hrs
[17] = target: Protein cereblon/Leucine-rich repeat serine/threonine-protein kinase 2 (Homo sapiens) (UniProt Q5S007+Q96SW2); assay: Protac activity at CRBN/LRRK2 in human MOLT-4 cells assessed as induction of LRRK2 degradation at 1 uM by proteomic analysis; assay type: cell-based
[18] = target: T3, Protein cereblon/Leucine-rich repeat serine/threonine-protein kinase 2 (Mus musculus); assay: Protac activity at CRBN/LRRK2 in MEF cells assessed as induction of LRRK2 degradation at 1 uM incubated for 48 hrs in the presence of MLi-2 by Western blot analysis; assay type: cell-based
[19] = target: Protein cereblon/Zinc finger protein Aiolos (Homo sapiens) (UniProt Q96SW2+Q9UKT9); assay: Protac activity at CRBN/IKZF3 in human MOLT-4 cells assessed as induction of IKZF3 degradation at 1 uM by proteomic analysis; assay type: cell-based
[20] = target: Protein cereblon/E3 ubiquitin-protein ligase ZFP91 (Homo sapiens) (UniProt Q96SW2+Q96JP5); assay: Protac activity at CRBN/ZFP91 in human MOLT-4 cells assessed as induction of ZFP91 degradation at 1 uM by proteomic analysis; assay type: cell-based
[21] = target: T1, Protein cereblon/Cyclin-G-associated kinase (Mus musculus); assay: Protac activity at CRBN/GAK in MEF cells assessed as induction of GAK degradation at 1 uM measured after 48 hrs by Western blot analysis; assay type: cell-based
[22] = tested on: Protein cereblon/Leucine-rich repeat serine/threonine-protein kinase 2 (Mus musculus), Q5S006+Q8C7D2 [R1441C]; assay: Protac activity at CRBN/LRRK2 R1441C mutant in MEF cells assessed as induction of LRRK2 degradation at 1 uM incubated for 48 hrs in presence of cereblon degrader ZXH-03-153 by Western blot analysis; assay type: cell-based
[23] = tested on: Protein cereblon/Leucine-rich repeat serine/threonine-protein kinase 2 (Mus musculus), Q5S006+Q8C7D2 [R1441C]; assay: Protac activity at CRBN/LRRK2 R1441C mutant in MEF cells assessed as induction of LRRK2 degradation at 1 uM incubated for 48 hrs by Western blot analysis; assay type: cell-based
[24] = target: von Hippel-Lindau disease tumor suppressor/Leucine-rich repeat serine/threonine-protein kinase 2 (Mus musculus) (UniProt Q5S006+P40338); assay: Protac activity at VHL/LRRK2 in MEF cells assessed as induction of LRRK2 degradation measured after 48 hrs by Western blot analysis; assay type: cell-based
[25] = tested on: von Hippel-Lindau disease tumor suppressor/Leucine-rich repeat serine/threonine-protein kinase 2 (Mus musculus), Q5S006+P40338 [R1441C]; assay: Protac activity at VHL/LRRK2 R1441C mutant in MEF cells assessed as induction of LRRK2 degradation incubated for 48 hrs by Western blot analysis; assay type: cell-based
[26] = target: Leucine-rich repeat serine/threonine-protein kinase 2 (Mus musculus) (UniProt Q5S006); assay: Inhibition of LRRK2 in MEF cells assessed as reduction in pS935 phosphorylation measured after 24 to 48 hrs by Western blot analysis; assay type: cell-based; conditions: time 24-48 hrs
[27] = target: Leucine-rich repeat serine/threonine-protein kinase 2 (Mus musculus) (UniProt Q5S006); assay: Induction of LRRK2 degradation in MEF cells at 100 nM measured after 2 hrs by Western blot analysis; assay type: cell-based

T1 sequence (Q8C7D2 whole entry, looked up): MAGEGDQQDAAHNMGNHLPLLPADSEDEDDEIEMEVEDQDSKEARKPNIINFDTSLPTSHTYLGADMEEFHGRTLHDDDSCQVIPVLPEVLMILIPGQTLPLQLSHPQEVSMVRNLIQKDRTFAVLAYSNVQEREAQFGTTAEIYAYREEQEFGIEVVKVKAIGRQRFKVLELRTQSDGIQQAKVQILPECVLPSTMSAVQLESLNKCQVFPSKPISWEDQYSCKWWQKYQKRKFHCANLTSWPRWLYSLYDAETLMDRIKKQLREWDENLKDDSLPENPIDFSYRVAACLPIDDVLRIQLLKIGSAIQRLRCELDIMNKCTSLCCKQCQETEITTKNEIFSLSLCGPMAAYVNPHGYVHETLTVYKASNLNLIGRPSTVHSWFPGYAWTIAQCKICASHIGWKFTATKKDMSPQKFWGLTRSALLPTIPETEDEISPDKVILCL
T1 sequence (Q99KY4 whole entry, looked up): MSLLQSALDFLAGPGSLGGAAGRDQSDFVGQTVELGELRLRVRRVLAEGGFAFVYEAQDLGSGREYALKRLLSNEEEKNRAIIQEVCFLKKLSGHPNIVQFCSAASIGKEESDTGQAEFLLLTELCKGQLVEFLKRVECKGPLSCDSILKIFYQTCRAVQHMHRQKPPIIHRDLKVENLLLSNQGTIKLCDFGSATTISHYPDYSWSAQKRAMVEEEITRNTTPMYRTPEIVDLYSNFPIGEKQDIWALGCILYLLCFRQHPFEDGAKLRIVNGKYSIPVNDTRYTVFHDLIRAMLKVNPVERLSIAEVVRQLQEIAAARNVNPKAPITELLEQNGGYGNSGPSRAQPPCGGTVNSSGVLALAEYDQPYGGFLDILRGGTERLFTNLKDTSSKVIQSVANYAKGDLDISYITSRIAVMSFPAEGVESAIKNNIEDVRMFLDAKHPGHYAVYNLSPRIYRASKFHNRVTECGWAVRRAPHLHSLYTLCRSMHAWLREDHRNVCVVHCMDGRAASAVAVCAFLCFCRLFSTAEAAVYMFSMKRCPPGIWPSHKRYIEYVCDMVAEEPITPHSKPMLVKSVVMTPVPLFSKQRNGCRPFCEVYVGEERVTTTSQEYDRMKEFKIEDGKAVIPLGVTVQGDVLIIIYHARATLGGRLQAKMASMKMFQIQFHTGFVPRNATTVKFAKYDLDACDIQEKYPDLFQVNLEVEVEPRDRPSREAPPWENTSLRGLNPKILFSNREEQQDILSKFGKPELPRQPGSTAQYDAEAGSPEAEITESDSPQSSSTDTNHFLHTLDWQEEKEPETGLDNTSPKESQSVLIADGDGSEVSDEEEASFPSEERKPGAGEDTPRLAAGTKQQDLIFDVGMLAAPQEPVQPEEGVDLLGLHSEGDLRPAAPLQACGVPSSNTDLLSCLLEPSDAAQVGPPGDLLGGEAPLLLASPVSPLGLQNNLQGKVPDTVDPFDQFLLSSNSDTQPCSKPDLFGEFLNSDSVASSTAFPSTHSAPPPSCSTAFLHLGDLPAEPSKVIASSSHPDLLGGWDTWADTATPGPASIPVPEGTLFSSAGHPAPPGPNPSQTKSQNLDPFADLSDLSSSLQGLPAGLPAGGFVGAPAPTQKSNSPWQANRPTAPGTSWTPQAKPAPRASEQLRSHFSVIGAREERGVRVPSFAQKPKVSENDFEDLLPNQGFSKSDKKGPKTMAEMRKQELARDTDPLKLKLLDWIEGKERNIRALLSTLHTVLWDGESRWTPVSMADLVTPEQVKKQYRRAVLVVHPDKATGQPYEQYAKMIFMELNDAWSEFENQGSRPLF
T2 sequence (Q5S007 whole entry, the tested form may be a part): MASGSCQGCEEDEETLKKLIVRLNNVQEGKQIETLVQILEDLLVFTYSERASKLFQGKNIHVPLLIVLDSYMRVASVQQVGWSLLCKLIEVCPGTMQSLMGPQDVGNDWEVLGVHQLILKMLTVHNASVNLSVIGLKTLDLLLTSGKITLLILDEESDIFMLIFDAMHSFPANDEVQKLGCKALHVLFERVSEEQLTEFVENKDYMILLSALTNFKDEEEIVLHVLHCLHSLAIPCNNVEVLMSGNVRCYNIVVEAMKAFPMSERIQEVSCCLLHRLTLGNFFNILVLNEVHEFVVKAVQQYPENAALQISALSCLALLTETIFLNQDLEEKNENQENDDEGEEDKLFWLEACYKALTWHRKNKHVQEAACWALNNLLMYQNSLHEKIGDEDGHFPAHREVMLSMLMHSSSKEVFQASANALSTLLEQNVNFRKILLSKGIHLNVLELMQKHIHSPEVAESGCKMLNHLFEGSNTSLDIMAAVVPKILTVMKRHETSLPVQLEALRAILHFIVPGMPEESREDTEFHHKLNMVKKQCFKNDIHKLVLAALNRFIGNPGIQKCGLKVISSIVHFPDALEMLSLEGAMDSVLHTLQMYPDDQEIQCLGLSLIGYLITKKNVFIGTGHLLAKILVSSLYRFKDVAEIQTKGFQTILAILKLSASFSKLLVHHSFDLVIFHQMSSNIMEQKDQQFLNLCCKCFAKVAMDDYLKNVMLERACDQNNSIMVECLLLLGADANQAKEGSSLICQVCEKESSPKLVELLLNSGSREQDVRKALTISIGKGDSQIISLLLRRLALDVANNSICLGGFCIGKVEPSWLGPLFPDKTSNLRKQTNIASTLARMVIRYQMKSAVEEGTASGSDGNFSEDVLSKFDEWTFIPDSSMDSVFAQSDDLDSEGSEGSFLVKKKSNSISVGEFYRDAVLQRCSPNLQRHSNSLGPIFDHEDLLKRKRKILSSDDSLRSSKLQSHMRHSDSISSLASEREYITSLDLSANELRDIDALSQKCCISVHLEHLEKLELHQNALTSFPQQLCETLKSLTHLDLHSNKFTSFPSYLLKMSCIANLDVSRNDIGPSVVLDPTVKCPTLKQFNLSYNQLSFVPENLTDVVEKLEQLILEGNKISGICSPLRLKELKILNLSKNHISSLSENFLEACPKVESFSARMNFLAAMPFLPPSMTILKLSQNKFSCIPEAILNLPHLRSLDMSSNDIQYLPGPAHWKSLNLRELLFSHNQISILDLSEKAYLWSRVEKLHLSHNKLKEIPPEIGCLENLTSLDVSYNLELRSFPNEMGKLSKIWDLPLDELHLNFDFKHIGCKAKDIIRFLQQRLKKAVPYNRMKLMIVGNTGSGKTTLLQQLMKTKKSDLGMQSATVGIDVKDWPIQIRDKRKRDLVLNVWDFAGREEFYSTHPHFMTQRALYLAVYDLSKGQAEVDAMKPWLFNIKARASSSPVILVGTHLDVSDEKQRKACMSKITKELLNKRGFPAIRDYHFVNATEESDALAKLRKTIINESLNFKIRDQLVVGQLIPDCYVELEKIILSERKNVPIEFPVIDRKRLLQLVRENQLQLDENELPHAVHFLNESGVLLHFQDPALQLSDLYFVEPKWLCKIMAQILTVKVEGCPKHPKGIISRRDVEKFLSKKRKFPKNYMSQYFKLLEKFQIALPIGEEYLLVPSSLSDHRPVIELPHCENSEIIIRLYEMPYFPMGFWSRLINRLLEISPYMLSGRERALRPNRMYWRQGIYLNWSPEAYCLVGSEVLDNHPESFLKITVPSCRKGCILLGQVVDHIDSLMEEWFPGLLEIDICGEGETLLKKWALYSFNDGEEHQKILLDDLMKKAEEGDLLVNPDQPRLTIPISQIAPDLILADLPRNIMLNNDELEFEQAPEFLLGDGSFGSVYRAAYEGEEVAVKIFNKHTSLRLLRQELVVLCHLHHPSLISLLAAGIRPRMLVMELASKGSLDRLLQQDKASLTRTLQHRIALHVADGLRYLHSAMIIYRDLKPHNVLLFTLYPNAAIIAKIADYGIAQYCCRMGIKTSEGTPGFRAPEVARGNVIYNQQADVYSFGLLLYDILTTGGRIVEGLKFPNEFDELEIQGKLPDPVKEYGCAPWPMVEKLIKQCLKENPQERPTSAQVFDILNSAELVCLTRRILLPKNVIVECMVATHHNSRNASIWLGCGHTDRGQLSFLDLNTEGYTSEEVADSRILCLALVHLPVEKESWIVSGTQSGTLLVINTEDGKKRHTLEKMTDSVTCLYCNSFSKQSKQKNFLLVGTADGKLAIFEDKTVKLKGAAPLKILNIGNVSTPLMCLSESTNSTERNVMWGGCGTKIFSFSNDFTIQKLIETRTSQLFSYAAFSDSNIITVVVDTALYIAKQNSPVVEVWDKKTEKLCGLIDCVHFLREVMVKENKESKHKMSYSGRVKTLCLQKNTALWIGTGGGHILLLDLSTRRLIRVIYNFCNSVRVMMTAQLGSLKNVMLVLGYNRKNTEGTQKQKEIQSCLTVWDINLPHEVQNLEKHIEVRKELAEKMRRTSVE
Chain of Leucine-rich repeat serine/threonine-protein kinase 2 (Homo sapiens, UniProt Q5S007, G2019S) (Q5S007 whole entry G2019S, the tested form may be a part): as the sequence (Q5S007 whole entry, the tested form may be a part) above, with G2019S counted along it
Chain of Protein cereblon/Leucine-rich repeat serine/threonine-protein kinase 2 (Homo sapiens) (Q5S007 whole entry, looked up): as the sequence (Q5S007 whole entry, the tested form may be a part) above
Chain of Protein cereblon/Leucine-rich repeat serine/threonine-protein kinase 2 (Homo sapiens) (Q96SW2 whole entry, looked up): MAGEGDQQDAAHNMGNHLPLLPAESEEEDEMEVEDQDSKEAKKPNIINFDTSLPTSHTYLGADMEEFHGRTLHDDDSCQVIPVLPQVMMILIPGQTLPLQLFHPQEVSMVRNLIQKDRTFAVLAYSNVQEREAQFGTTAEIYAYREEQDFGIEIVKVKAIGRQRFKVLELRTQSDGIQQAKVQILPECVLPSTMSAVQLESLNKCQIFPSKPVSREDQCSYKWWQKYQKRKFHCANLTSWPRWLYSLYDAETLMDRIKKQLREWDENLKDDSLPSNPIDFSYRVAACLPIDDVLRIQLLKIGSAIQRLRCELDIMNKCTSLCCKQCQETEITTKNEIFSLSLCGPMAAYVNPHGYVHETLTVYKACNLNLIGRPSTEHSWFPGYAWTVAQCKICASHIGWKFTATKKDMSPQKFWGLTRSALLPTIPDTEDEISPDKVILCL
Chain of Leucine-rich repeat serine/threonine-protein kinase 2 (Homo sapiens), Q5S007 [G2019S] (Q5S007 whole entry G2019S, the tested form may be a part): as the sequence (Q5S007 whole entry, the tested form may be a part) above, with G2019S counted along it

C[C@@H]1CN(c2cc(-c3n[nH]c4ccc(OC5(C)CC5)cc34)ncn2)C[C@H](C)O1
Activity [1]: inactive
Activity [2]: inactive

CC1(Oc2ccc3[nH]nc(-c4cc(N5CCN(C(=O)CCOCCOCCNc6cccc7c6C(=O)N(C6CCC(=O)NC6=O)C7=O)CC5)ncn4)c3c2)CC1 (stereo not drawn)
IC50 [3]: 1 nM
Activity [4]: Active
IC50 [5]: 1 nM

Cc1ncsc1-c1ccc([C@@H](C)NC(=O)[C@H]2C[C@H](O)CN2C(=O)[C@H](NC(=O)CCOCCOCCOCCC(=O)N2CCN(c3cc(-c4n[nH]c5ccc(OC6(C)CC6)cc45)ncn3)CC2)C(C)(C)C)cc1
IC50 [3]: 6 nM
IC50 [5]: 7 nM

CC1(Oc2ccc3[nH]nc(-c4cc(N5CCN(C(=O)CCOCCNc6cccc7c6C(=O)N(C6CCC(=O)NC6=O)C7=O)CC5)ncn4)c3c2)CC1 (stereo not drawn)
Activity [6]: Active
IC50 [3]: 2 nM
IC50 [5]: 1 nM

CC1(Oc2ccc3[nH]nc(-c4cc(N5CCN(C(=O)CCOCCOCCNc6cccc7c6C(=O)N(C6CCC(=O)NC6=O)C7)CC5)ncn4)c3c2)CC1 (stereo not drawn)
Activity [6]: Active
IC50 [3]: 3 nM
IC50 [5]: 2 nM

CC1(Oc2ccc3[nH]nc(-c4cc(N5CCN(C(=O)CCOCCOCCOCCOCCNc6cccc7c6C(=O)N(C6CCC(=O)NC6=O)C7=O)CC5)ncn4)c3c2)CC1 (stereo not drawn)
Activity [7]: Active
Activity [8]: Active
IC50 [3]: 1 nM
Activity [9]: Active
inhibition [10]: Active
inhibition [11]: > 85%
inhibition [12]: > 85%
Activity [13]: Active
Activity [4]: Active
Activity [14]: inactive
Activity [15]: inactive
inhibition [16]: Active
Activity [17]: Active
Activity [18]: inactive
Activity [19]: Active
Activity [20]: Active
Activity [21]: Active
Activity [22]: inactive
IC50 [5]: 1 nM
Activity [23]: Active

CC1(Oc2ccc3[nH]nc(-c4cc(N5CCN(C(=O)CCOCCOCCOCCOCCNc6cccc7c6C(=O)N(C6CCC(=O)NC6=O)C7)CC5)ncn4)c3c2)CC1 (stereo not drawn)
Activity [6]: Active
IC50 [3]: 3 nM
IC50 [5]: 3 nM

Nc1cccc2c1CN(C1CCC(=O)NC1=O)C2=O (stereo not drawn)
Activity [6]: Active

CC1(Oc2ccc3[nH]nc(-c4cc(N5CCN(C(=O)CCOCCNc6cccc7c6C(=O)N(C6CCC(=O)NC6=O)C7)CC5)ncn4)c3c2)CC1 (stereo not drawn)
Activity [6]: Active
IC50 [3]: 3 nM
IC50 [5]: 2 nM

CC1(Oc2ccc3[nH]nc(-c4cc(N5CCN(C(=O)CCOCCOCCNc6cccc7c6C(=O)N(C6CCCNC6=O)C7=O)CC5)ncn4)c3c2)CC1 (stereo not drawn)
Activity [24]: inactive
IC50 [3]: 2 nM
IC50 [5]: 2 nM
Activity [25]: inactive
inhibition [26]: Active

O=C1CCC(N2C(=O)c3cccc(NCCCCCNc4cccc5c4C(=O)N(C4CCC(=O)NC4=O)C5=O)c3C2=O)C(=O)N1 (stereo not drawn)
Activity [27]: Active

Cc1ncsc1-c1ccc([C@H](C)NC(=O)[C@@H]2C[C@@H](O)CN2C(=O)[C@@H](NC(=O)CCOCCOCCOCCOCCC(=O)N2CCN(c3cc(-c4n[nH]c5ccc(OC6(C)CC6)cc45)ncn3)CC2)C(C)(C)C)cc1
IC50 [3]: 3 nM
IC50 [5]: 4 nM

Source: ChEMBL document CHEMBL5365424, “Development of a highly potent and selective degrader of LRRK2” (Bioorg Med Chem Lett, 2023)
